Results: US12667724B2, “Combination therapy for the treatment of depression” (Flow Neuroscience, Inc., priority 2022, dated 2026)
Entries after “also recorded” stand apart in the source; their conditions may differ.

How the values were obtained:
[1] = Weekly MADRS-s self-assessment of MDD subjects on a prescribed antidepressant combined with home tDCS sessions (Example 2); type: in vivo, human; details: for effectiveness in reducing symptoms of depression (change in MADRS-s) compared to fluoxetine: combined with tDCS, Week 6
From the text: In this example, a subject completed a MADRS-s questionnaire at baseline (defined as a time preceding initiation of neurostimulation) to determine a starting measurement to be used in an assessment of treatment efficacy. Ideally, baseline measures were made close to the period of time in which the first neurostimulation session began. The subject completed the same MADRS-s questionnaire weekly during a period of ongoing treatment comprising administering of a prescribed pharmacologic antidepressant agent and delivery to the subject of plurality tDCS sessions. The number of and date completed of each tDCS session was recording in order to analyze subjects according to how often they successfully completed tDCS sessions as part of their treatment regimens. Subjects were parcellated into groups of 1) depression symptoms absent, 2) mild depression, 3) moderate depression, or 4) severe depression to further enable analysis of changes in MADRS-s score according to severity of depression and adherence to the recommended tDCS session schedule. […]
Subjects were provided with a tDCS neurostimulation device, instructions of use, and an program capable of being run on a handheld electronic device which provided instructions, recorded responses to various questionnaires completed by the subject, and recorded information regarding the tDCS stimulation sessions completed by the user. Amongst the tDCS stimulation session information recorded was the date of each session completed, the time of day of each completed session, the duration of each completed session, the intensity of electrical stimulation in each session, the latency from the most recently completed session to the previous session.
Subjects completed a MADSR-s assessment at baseline prior to their first tDCS session. […] In this treatment tracking questionnaire, subjects recorded if their specific antidepressant agent or category of antidepressant had changed. […] Subjects also recorded if the dosage administered of the antidepressant medication had changed in the past month. […]

[2] = system: serotonin reuptake and norepinephrine reuptake; details: cited from earlier work

| SMILES | effectiveness in reducing symptoms of depression (change in MADRS-s) compared to fluoxetine [1] | Result of ANOVA of change in MADRS-s score ([1]; Week 6 after initiation of treatment, Fluoxetine vs. the labelled agent, each combined with tDCS, irrespective of tDCS adherence) | selectivity for serotonin reuptake inhibition than norepinephrine reuptake inhibition [2] [fold] |
| --- | --- | --- | --- |
| CN[C@H]1CC[C@@H](c2ccc(Cl)c(Cl)c2)c2ccccc21 [Sertraline, sertraline] | significant difference; also recorded: significantly better |  |  |
| COc1ccc(C(CN(C)C)C2(O)CCCCC2)cc1 (centres unmarked) [Venlafaxine, venlafaxine] | approaching significance | Approaching |  |
| CN(C)CC(c1ccc(O)cc1)C1(O)CCCCC1 (centres unmarked) [desvenlafaxine] |  |  | 10 |
| CNCC[C@H](Oc1cccc2ccccc12)c1cccs1 [duloxetine] |  |  | 10 |
